Test results from patent US8623859B2, “Bradykinin B1 antagonists” (Evotec AG, priority 2008, dated 2014).
Where a name gives a salt, the structure may show the parent alone.

Target: T1, human B1 (Homo sapiens, UniProt P46663)
T1 construct: host or cells: CHO-K1
T1 sequence (P46663 1-353): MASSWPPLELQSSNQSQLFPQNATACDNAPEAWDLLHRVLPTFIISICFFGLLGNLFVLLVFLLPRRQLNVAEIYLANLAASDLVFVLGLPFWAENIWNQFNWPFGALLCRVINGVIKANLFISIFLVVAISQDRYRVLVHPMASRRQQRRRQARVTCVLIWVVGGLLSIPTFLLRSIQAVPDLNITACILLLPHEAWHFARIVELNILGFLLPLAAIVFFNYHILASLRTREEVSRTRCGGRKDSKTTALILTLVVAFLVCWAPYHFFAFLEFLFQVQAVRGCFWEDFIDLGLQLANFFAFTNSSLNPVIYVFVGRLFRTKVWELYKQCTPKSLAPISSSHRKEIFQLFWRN
Experiment: Calcium flux assay for Bradykinin B1 antagonist, CHO-K1 cell line expressing human B1
Type: cell-based
Settings: CHO-K1 cells expressing human B1, agonist Lys-(Des-Arg)-Bradykinin, read-out: Potency (IC50 value against human B1)
Procedure, shortened: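 Inhibition of B1 agonist-evoked intracellular Ca2+ rise was followed by continuous fluorescence at 538 nm, with integrated, background-normalized signals plotted versus log compound concentration. Test compounds (eight 10-fold dilutions, triplicate, 1% DMSO final) were added 30 min at 25° C beforehand to Fluo-4AM-loaded human B1 CHO-K1 cells in pH 7.4 assay buffer.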

| SMILES | IC50 [µM] |
| --- | --- |
| COc1cc(C)c(S(=O)(=O)N(Cc2cc(C(=O)N3CCCN(CCCN4CCCC4)CC3)co2)C2CC2)c(C)c1 [Ex 116, N-Cyclopropyl-4-methoxy-2,6-dimethyl-N-[(4-{[4-(3-pyrrolidin-1-ylpropyl)-1,4-diazepan-1-yl]carbonyl}furan-2-yl)methyl]benzenesulfonamide trifluoroacetate] | 0.01 to 0.1 |
| COc1cc(C)c(S(=O)(=O)N(C)Cc2nnc(C(=O)N(C)CCc3ccc(C4=NCCN4)cc3)s2)c(C)c1 [Ex 328, N-{2-[4-(4,5-Dihydro-1H-imidazol-2-yl)phenyl]ethyl}-5-({[(4-methoxy-2,6-dimethylphenyl)sulfonyl](methyl)amino}methyl)-N-methyl-1,3,4-thiadiazole-2-carboxamide] | < 0.01 |
| CN(CCc1ccc(C2=NCCN2)cc1)C(=O)c1coc(CN(C2CC2)S(=O)(=O)c2c(Cl)cccc2Cl)n1 [Ex 213, 2-({Cyclopropyl[(2,6-dichlorophenyl)sulfonyl]amino}methyl)-N-{2-[4-(4,5-dihydro-1H-imidazol-2-yl)phenyl]ethyl}-N-methyl-1,3-oxazole-4-carboxamide trifluoroacetate] | 0.1 to 1 |
| COc1cc(C)c(S(=O)(=O)N(Cc2nc(C(=O)NCCC3CCCNC3)co2)C2CC2)c(C)c1 (stereo not shown) [Ex 159a, 2-({Cyclopropyl[(4-methoxy-2,6-dimethylphenyl)sulfonyl]amino}methyl)-N-(2-piperidin-3-ylethyl)-1,3-oxazole-4-carboxamide] | 0.1 to 1 |
| COc1cc(C)c(S(=O)(=O)N(Cc2nc(C(=O)N(C)Cc3ccc(CN4CCC(O)C4)cc3)co2)C2CC2)c(C)c1 (stereo not shown) [Ex 176, 2-({Cyclopropyl[(4-methoxy-2,6-dimethylphenyl)sulfonyl]amino}methyl)-N-{4-[(3-hydroxypyrrolidin-1-yl)methyl]benzyl}-N-methyl-1,3-oxazole-4-carboxamide] | < 0.01 |
| COc1cc(C)c(S(=O)(=O)N(C)Cc2nnc(C(=O)N3CCN(CC4CCN(C)CC4)CC3)[nH]2)c(C)c1 [Ex 338, 4-Methoxy-N,2,6-trimethyl-N-{[5-({4-[(1-methylpiperidin-4-yl)methyl]piperazin-1-yl}carbonyl)-4H-1,2,4-triazol-3-yl]methyl}benzenesulfonamide] | 0.1 to 1 |
| Cc1cc(S(=O)(=O)N(Cc2nc(C(=O)N(C)CCc3ccc(C4=NCCN4)cc3)co2)C2CC2)c(C)cc1Cl [Ex 217, 2-({[(4-Chloro-2,5-dimethylphenyl)sulfonyl](cyclopropyl)amino}methyl)-N-{2-[4-(4,5-dihydro-1H-imidazol-2-yl)phenyl]ethyl}-N-methyl-1,3-oxazole-4-carboxamide trifluoroacetate] | 0.1 to 1 |
| COc1cc(C)c(S(=O)(=O)N(Cc2nc(C(=O)N3CCC(OC4CCN(C)C4)CC3)co2)C2CC2)c(C)c1 (stereo not shown) [Ex 247, N-Cyclopropyl-4-methoxy-2,6-dimethyl-N-{[4-({4-[(1-methylpyrrolidin-3-yl)oxy]piperidin-1-yl}carbonyl)-1,3-oxazol-2-yl]methyl}benzenesulfonamide] | 0.1 to 1 |
| CN(CCc1ccc(C2=NCCN2)cc1)C(=O)c1coc(CN(C2CC2)S(=O)(=O)c2ccc(Cl)cc2Cl)n1 [Ex 214, 2-({Cyclopropyl[(2,4-dichlorophenyl)sulfonyl]amino}methyl)-N-{2-[4-(4,5-dihydro-1H-imidazol-2-yl)phenyl]ethyl}-N-methyl-1,3-oxazole-4-carboxamide trifluoroacetate] | 0.1 to 1 |
| COc1cc(C)c(S(=O)(=O)N(C)Cc2nnc(C(=O)N3CCN(Cc4ccnc(C)c4)CC3)o2)c(C)c1 [Ex 294, 4-Methoxy-N,2,6-trimethyl-N-{[5-({4-[(2-methylpyridin-4-yl)methyl]piperazin-1-yl}carbonyl)-1,3,4-oxadiazol-2-yl]methyl}benzenesulfonamide] | 0.01 to 0.1 |
| COc1cc(C)c(S(=O)(=O)N(Cc2nc(C(=O)N(C)C3CCCC(N4CCN(C)CC4)C3)co2)C2CC2)c(C)c1 (stereo not shown) [Ex 244, 2-({Cyclopropyl[(4-methoxy-2,6-dimethylphenyl)sulfonyl]amino}methyl)-N-methyl-N-[3-(4-methylpiperazin-1-yl)cyclohexyl]-1,3-oxazole-4-carboxamide] | < 0.01 |
| COc1cc(C)c(S(=O)(=O)N(Cc2nc(C(=O)N3CCN(Cc4c[nH]c(C)n4)CC3)co2)C2CC2)c(C)c1 [Ex 250, N-Cyclopropyl-4-methoxy-2,6-dimethyl-N-{[4-({4-[(2-methyl-1H-imidazol-4-yl)methyl]piperazin-1-yl}carbonyl)-1,3-oxazol-2-yl]methyl}benzenesulfonamide] | < 0.01 |
| COc1cc(C)c(S(=O)(=O)N(C)Cc2nnc(C(=O)N(C)Cc3ccc(CN4CC(OC)C4)cc3)o2)c(C)c1 [Ex 287, N-{4-[(3-Methoxyazetidin-1-yl)methyl]benzyl}-5-({[(4-methoxy-2,6-dimethylphenyl)sulfonyl](methyl)amino}methyl)-N-methyl-1,3,4-oxadiazole-2-carboxamide] | 0.1 to 1 |
| COc1cc(C)c(S(=O)(=O)N(C)Cc2nnc(C(=O)NCCc3ccc(C4=NCCN4)cc3)o2)c(C)c1 [Ex 269, N-{2-[4-(4,5-Dihydro-1H-imidazol-2-yl)phenyl]ethyl}-5-({[(4-methoxy-2,6-dimethylphenyl)sulfonyl](methyl)amino}methyl)-1,3,4-oxadiazole-2-carboxamide trifluoroacetate] | < 0.01 |
| COc1cc(C)c(S(=O)(=O)N(C)Cc2noc(C(=O)N3CCN(CCCN4CCCC4)CC3)n2)c(C)c1 [Ex 304, 4-Methoxy-N,2,6-trimethyl-N-[(5-{[4-(3-pyrrolidin-1-ylpropyl)piperazin-1-yl]carbonyl}-1,2,4-oxadiazol-3-yl)methyl]benzenesulfonamide trifluoroacetamide] | 0.1 to 1 |

Results, then the compound that gave them:

| IC50 [µM] | SMILES |
| --- | --- |
| 0.01 to 0.1 | COc1cc(C)c(S(=O)(=O)N(C)Cc2cc(C(=O)NCc3ccc(C4=NCC(C)(C)N4)cc3)co2)c(C)c1 [Ex 93, N-[4-(5,5-Dimethyl-4,5-dihydro-1H-imidazol-2-yl)benzyl]-5-({[(4-methoxy-2,6-dimethylphenyl)sulfonyl](methyl)amino}methyl)furan-3-carboxamide trifluoroacetate] |
| 0.01 to 0.1 | COc1cc(C)c(S(=O)(=O)N(Cc2cc(C(=O)N(C)Cc3cccc(CN4CCCC4)c3)co2)C2CC2)c(C)c1 [Ex 55, 5-({Cyclopropyl[(4-methoxy-2,6-dimethylphenyl)sulfonyl]amino}methyl)-N-methyl-N-[3-(pyrrolidin-1-ylmethyl)benzyl]furan-3-carboxamide] |
| 0.01 to 0.1 | COc1cc(C)c(S(=O)(=O)N(Cc2cc(C(=O)N(C)Cc3ccc(CN4CCC(O)CC4)cc3)co2)C2CC2)c(C)c1 [Ex 139, 5-({Cyclopropyl[(4-methoxy-2,6-dimethylphenyl)sulfonyl]amino}methyl)-N-{4-[(4-hydroxypiperidin-1-yl)methyl]benzyl}-N-methylfuran-3-carboxamide] |
| 0.1 to 1 | COc1cc(C)c(S(=O)(=O)N(C)Cc2cc(C(=O)NC(C)c3ccc(CN4CCCC4)cc3)co2)c(C)c1 (stereo not shown) [Ex 90, 5-({[(4-Methoxy-2,6-dimethylphenyl)sulfonyl](methyl)amino}methyl)-N-{1-[4-(pyrrolidin-1-ylmethyl)phenyl]ethyl}furan-3-carboxamide] |
| 0.1 to 1 | COc1cc(C)c(S(=O)(=O)N(C)Cc2cc(C(=O)N3CCC(CN4CCCC4)CC3)co2)c(C)c1 [Ex 41, 4-methoxy-N,2,6-trimethyl-N-[(4-{[4-(pyrrolidin-1-ylmethyl)piperidin-1-yl]carbonyl}furan-2-yl)methyl]benzenesulfonamide] |
| 0.01 to 0.1 | COc1cc(C)c(S(=O)(=O)N(Cc2cc(C(=O)NCCc3ccc(C4=NCCN4)cc3)co2)CC2CC2)c(C)c1 [Ex 49, 5-({(Cyclopropylmethyl)[(4-methoxy-2,6-dimethylphenyl)sulfonyl]amino}methyl)-N-{2-[4-(4,5-dihydro-1H-imidazol-2-yl)phenyl]ethyl}furan-3-carboxamide] |
| 0.1 to 1 | COc1cc(C)c(S(=O)(=O)N(C)Cc2cc(C(=O)NC(C)c3ccc(CN4CCC(O)C4)cc3)co2)c(C)c1 (stereo not shown) [Ex 91, N-(1-{4-[(3-Hydroxypyrrolidin-1-yl)methyl]phenyl}ethyl)-5-({[(4-methoxy-2,6-dimethylphenyl)sulfonyl](methyl)amino}methyl)furan-3-carboxamide] |
| < 0.01 | COc1cc(C)c(S(=O)(=O)N(C)Cc2nc(C(=O)N(C)Cc3ccc(CN4CCC(C(=O)N(C)C)C4)cc3)co2)c(C)c1 (stereo not shown) [Ex 171, N-(4-{[3-(Dimethylcarbamoyl)pyrrolidin-1-yl]methyl}benzyl)-2-({[(4-methoxy-2,6-dimethylphenyl)sulfonyl](methyl)amino}methyl)-N-methyl-1,3-oxazole-4-carboxamide] |
| < 0.01 | COc1cc(C)c(S(=O)(=O)N(Cc2nc(C(=O)NCc3ccc(CN4CCCC4)cc3)co2)C2CC2)c(C)c1 [Ex 76, 2-({Cyclopropyl[(4-methoxy-2,6-dimethylphenyl)sulfonyl]amino}methyl)-N-[4-(pyrrolidin-1-ylmethyl)benzyl]-1,3-oxazole-4-carboxamide] |
| 0.1 to 1 | COc1cc(C)c(S(=O)(=O)N(C)Cc2cc(C(=O)N(C)Cc3ccc(CN4CCC(NC(C)=O)C4)cc3)co2)c(C)c1 (stereo not shown) [Ex 132, N-(4-{[3-(Acetylamino)pyrrolidin-1-yl]methyl}benzyl)-5-({[(4-methoxy-2,6-dimethylphenyl)sulfonyl](methyl)amino}methyl)-N-methylfuran-3-carboxamide] |
